Source: patent US20110184018A1, “METHOD FOR TREATING PERIPHERAL NEUROPATHIC PAIN” (LOHOCLA RESEARCH CORPORATION, priority 2005, published 2011)
Read-outs that look alike come from different tables or passages of the source.

Key:
[1] = Brain levels of DCUKA after intraperitoneal administration; type: in vivo; conditions: over at least 2 hours
Experimental: While the acid forms of the diarylureido-dihalokynurenic acid compounds are detectable in the brain after intravenous or intraperitoneal injection, “prodrug” versions (e.g., esters) were prepared to enhance transport across the blood-brain barrier. FIG. 6 illustrates the brain levels of DCUKA after administration of DCUKA itself, the DCUK-O-methyl ester and the DCUK-O-ethyl ester. […] Accordingly, ethyl esters of the diarylureido-dihalokynurenate compounds are particularly preferred (e.g., DCUK-OEt).

[2] = Solubility limit in aqueous assay buffers; type: physicochemical; conditions: aqueous assay buffers (incubation or bath solutions), aqueous buffer, kinetic from dmso stock, DMSO 0.2 to 1%, read-out: concentrations that could not be tested due to limited solubility in aqueous buffers
Experimental: Drugs. For all in vitro assays, stock solutions of DCUKA or DCUK-OMe were prepared fresh daily in dimethylsulfoxide (DMSO) then diluted into the incubation or bath solutions with sonication to the desired concentrations for experiments. Due to their limited solubility in aqueous buffers, DCUKA concentrations >300 μM and DCUK-OMe concentrations >100 μM could not be tested. In those assays where high ionic strength buffers were used, i.e., [^3H]batrachiotoxin (BTX) binding in depolarized synaptosomes, concentrations >50 μM could not be tested. The final concentration of DMSO in the assays ranged from 0.2 to 1%. In all assays, drug effects were compared with effects measured in the presence of the identical concentration of DMSO without drug.

[3] = target: voltage sensitive sodium channel (neurotoxin receptor Site 2); test: [3H]BTX binding assay; conditions: rat cortical synaptosomes
[4] = target: T1, glycine recognition site of the NMDA receptor complex (Rattus norvegicus, UniProt P35439); test: [3H]5,7-DCKA binding assay; conditions: rat cortical membranes; none = no displacement at 100 μM
T1 construct: The telencephalon (cerebral cortex, hippocampus, and striatum) was dissected and homogenized; from tissue; host or cells: rat telencephalon membranes (cerebral cortex, hippocampus, striatum), Triton X-100 treated
Experimental: General receptor-binding procedures. Male Sprague-Dawley rats were decapitated and their brains removed rapidly. The telencephalon (cerebral cortex, hippocampus, and striatum) was dissected and homogenized in 20 volumes of ice-cold 0.32 M sucrose, 20 mM HEPES-KOH (pH 7.2 at room temperature) containing protease inhibitors ([…], 5 mg/mL antipain, 20 mg/mL soybean trypsin inhibitor, 500 μM benzamidine, […] aprotinin, and 500 μM phenylmethylsulfonyl fluoride) with a motor driven glass-TEFLON® fluorocarbon homogenizer (8-10 strokes at setting 1). The homogenate was centrifuged at 800 g for 10 minutes. The pellet was discarded and the supernatant was centrifuged at 20,000 g for 20 minutes. The resulting pellet was resuspended in 20 volumes of distilled water containing 500 μM benzamidine and centrifuged for 20 minutes at 7500 g. Then the supernatant and buffy coat were centrifuged three times (51,500 g for 20 minutes) in the presence of distilled water containing 500 μM benzamidine. All centrifugation steps were carried out at 4° C. The final pellet was frozen rapidly at −80° C.
On the day of the assay, the pelleted membranes were resuspended in 20 volumes of 50 mM HEPES-KOH buffer, pH 7.4, and incubated for 20 minutes at 37° C. followed by centrifugation (51,500 g for 20 minutes). Membranes were then resuspended in 50 mM HEPES-KOH buffer (pH 7.8) containing 0.08% Triton X-100. After stirring for 30 minutes at 4° C., the membranes were pelleted by centrifugation (100,000 g for 20 minutes). The membranes were then washed twice by resuspension in the buffer appropriate for the binding assay and centrifugation (100,000 g for 20 minutes). The final pellet was suspended in assay buffer. The amount of protein in the final membrane preparation was determined with the bicinchoninic acid method (BCA; Pierce Chemical Co., Rockford, Ill.). The final protein concentration used for our studies was 300 to 600 μg/mL. Receptor-binding protocols described below were adapted from published procedures. For all assays, the samples, all in duplicate or triplicate, were placed into scintillation vials containing 5.5 mL of scintillation liquid (Ultima Gold; Packard Instrument Co., Inc., Meriden, Conn.) and the retained radioactivity was determined by conventional scintillation spectroscopy with a Beckman TA-6000 scintillation counter. Radio-ligands were purchased from DuPont-NEN (Boston, Mass.).
[^3H]5,7-Dichlorokynurenic acid (5,7-DCKA)-binding assay. The glycine recognition site of the NMDA receptor complex was labeled with the competitive antagonist [^3H]5,7-dichlorokynurenic acid (5,7-DCKA). […]
Data Analysis. The data were analyzed with SigmaPlot 5.0 and SigmaStat 2.0 (Jandel Scientific, Corte Madera, Calif.) software. […]

SMILES | levels of DCUKA in the brain generated by the ester [1] | solubility [2] | IC50 ([3]; depolarizing conditions (135 mM KCl), read-out: IC50 [3H]BTX binding under depolarizing conditions (value in parentheses)) | IC50 ([3]; none = no displacement at 100 μM, read-out: IC50 [3H]BTX binding) | IC50 [4]
CCOC(=O)c1cc(NC(=O)N(c2ccccc2)c2ccccc2)c2c(Cl)cc(Cl)cc2n1 [DCUK-OEt, N,N-diphenyl-4-ureido-5,7-dichloro-2-carboxy quinoline ethyl ester] | significantly improved levels of DCUKA in the brain | – | – | – | –
O=C(O)c1cc(NC(=O)N(c2ccccc2)c2ccccc2)c2c(Cl)cc(Cl)cc2n1 [DCUKA, N,N-diphenyl-4-ureido-5,7-dichloro-2-carboxyquinoline] | – | > 300 µM | 30 µM | 76 µM | 28 µM
